The source of these data is US20250122219A1 (priority 2023, published 2025).

One series is described as follows: physchem. It is filed as physicochemical. To be noted: 23 °C, thermodynamic from solid, ambient temperature, 5 mg/mL dose concentration; for solubility thermodynamic at 24 h: FaSSIF. The protocol: Approximately 7 mg of each test compound as a dry powder was placed in a vial. Aliquots were weighed out for each assay media at 2 hour and 24 hour time points, to be analyzed. The appropriate buffer (FaSSIF or PBS) was added to each vial such that the final dose concentration of 5 mg/mL was achieved. […] The plate was sealed with a pierceable heat seal and analyzed by HPLC-UV.
A system QC (0.01 mg/mL Caffeine in DMSO) was injected every 12-15 injections. […] Results are reported using data obtained at 280 nm. The resulting peak areas were plotted against the known concentrations from the calibration and the filtrates are quantified with respect to the linear regression using Agilent OpenLab Intelligent Reporting Software. The results are reported electronically in mg/mL.

A further series concerns HIV-1 (IIIB). Put plainly: Antiviral assay in MT-4 cells. Format: cell-based. The gist of the method: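 Read-out: CellTiter-Glo luminescence after 5 days at 37 °C, reflecting survival of MT-4 cells infected with HIV-1 IIIB (1:250 fresh stock dilution) versus mock-infected. Compounds serially diluted into RPMI with 10% FBS; AZT at 5 μM served as positive control.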
Series [1] in a line: Cytotoxicity assay in MT-4 cells. It is filed as cell-based. To be noted: human; uninfected MT-4 cells, 5 days incubation, Cell Titer Glo; read-out: MT4 CC50. The gist of the method: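 Viability read by Cell Titer Glo luminescence after 5 days at 37 °C. MT-4 cells, not infected, in complete RPMI (10% FBS), received compound dilution series. Base cytotoxicity set with […] puromycin.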
(ATP-based viability assays read luminescence as a measure of living cells.)

The mark [2] stands for this setting: Human immunodeficiency virus 1, MT4, 120 h, HIV-1 IIIB in MT-4 cells, 5 days incubation, Cell Titer Glo, read-out: MT4 EC50.

≈ marks a conversion by molar mass, not a printed value. Like-named read-outs stand apart in the source and are kept apart here.

The term solubility (thermodynamic) denotes the concentration in solution at equilibrium with solid. Broadly, the EC50 is the concentration needed to bring the measured effect to its halfway point. The term CC50 denotes the concentration at which the toxic effect on the cells reaches its halfway point. As for `CC1=NO[C@@]2(CC[C@H](C)N3C[C@H]2n2cc(C(=O)NCc4ccc(F)cc4F)c(=O)c(O[C@H](C)OC(=O)OC(C)C)c2C3=O)C1` (single isomer, unassigned) [Example 20], the thermodynamic solubility at 24 h in the series “physchem” is 70 µg/mL (≈ 114 µM). Further, in the series with HIV-1 (IIIB) (setting [2]), the EC50 is 11.5 nM. Further, the CC50 at 5 days in series [1] is 35000 nM.

The compound `CC1=NO[C@@]2(CC[C@H](C)N3C[C@H]2n2cc(C(=O)NCc4ccc(F)cc4F)c(=O)c(O[C@@H](C)OC(=O)OC(C)C)c2C3=O)C1` (single isomer, unassigned) [Example 21] returned a thermodynamic solubility at 24 h in “physchem” of 150 µg/mL (≈ 243 µM). Besides, the EC50 with HIV-1 (IIIB) (setting [2]) is 26.4 nM. Also, the CC50 at 5 days in series [1] is at least 50000 nM.

In “physchem”, `COCCOCCOCCOC(=O)Oc1c2n(cc(C(=O)NCc3ccc(F)cc3F)c1=O)[C@@H]1CN(C2=O)[C@@H](C)CC[C@]12CC(OC)=NO2` [Example 3, (3′S,5S,7′R)-10′-((2,4-difluorobenzyl)carbamoyl)-3-methoxy-3′-methyl-1′,11′-dioxo-1′,4′,5′,11′-tetrahydro-3′H,4H,7′H-spiro[isoxazole-5,6′-[2,7]methanopyrido[1,2-a][1,4]diazonin]-12′-yl (2-(2-(2-methoxyethoxy)ethoxy)ethyl) carbonate] showed a thermodynamic solubility at 24 h of 470 µg/mL (≈ 679 µM). For the same compound, the EC50 in the series on HIV-1 (IIIB) (setting [2]) is 1.06 nM. The CC50 at 5 days in series [1] was 16300 nM.

Regarding `COCCOC(=O)OCOc1c2n(cc(C(=O)NCc3ccc(F)cc3F)c1=O)[C@@H]1CN(C2=O)[C@@H](C)CC[C@]12CC(OC)=NO2` [Example 5, (((3′S,5S,7′R)-10′-((2,4-difluorobenzyl)carbamoyl)-3-methoxy-3′-methyl-1′,11′-dioxo-1′,4′,5′,11′-tetrahydro-3′H,4H,7′H-spiro[isoxazole-5,6′-[2,7]methanopyrido[1,2-a][1,4]diazonin]-12′-yl)oxy)methyl (2-methoxyethyl) carbonate], the solubility (thermodynamic) in “physchem” (aqueous buffer, PBS) worked out at 39 µg/mL (≈ 61.5 µM). Besides, in the series “physchem”, the solubility (thermodynamic) at 24 h is 168 µg/mL (≈ 265 µM). The EC50 with HIV-1 (IIIB) (setting [2]) is 4.08 nM. In addition, the CC50 at 5 days in series [1] worked out at 39800 nM.

For `COCCOCCOC(=O)Oc1c2n(cc(C(=O)NCc3ccc(F)cc3F)c1=O)[C@@H]1CN(C2=O)[C@@H](C)CC[C@]12CC(C)=NO2` [Example 8, (3′S,5S,7′R)-10′-((2,4-difluorobenzyl)carbamoyl)-3,3′-dimethyl-1′,11′-dioxo-1′,4′,5′,11′-tetrahydro-3′H,4H,7′H-spiro[isoxazole-5,6′-[2,7]methanopyrido[1,2-a][1,4]diazonin]-12′-yl (2-(2-methoxyethoxy)ethyl) carbonate], the solubility (thermodynamic) at 24 h in the series “physchem” was determined as 486 µg/mL (≈ 768 µM). For the same compound, the EC50 in the series with HIV-1 (IIIB) (Human immunodeficiency virus 1, IIIB, MT4, 120 h, read-out: MT4 EC50 (nM)) worked out at 0.632 nM. Further, in series [1], the cytotoxic concentration (CC50) at 5 days is 11700 nM.

In the case of `COC1=NO[C@@]2(CC[C@H](C)N3C[C@H]2n2cc(C(=O)NCc4ccc(F)cc4F)c(=O)c(OCOC(=O)OCCCC(C)C)c2C3=O)C1` [Example 204, (((3′S,5S,7′R)-10′-((2,4-difluorobenzyl)carbamoyl)-3-methoxy-3′-methyl-1′,11′-dioxo-1′,4′,5′,11′-tetrahydro-3′H,4H,7′H-spiro[isoxazole-5,6′-[2,7]methanopyrido[1,2-a][1,4]diazonin]-12′-yl)oxy)methyl (4-methylpentyl) carbonate], the EC50 in the series with HIV-1 (IIIB) (setting [2]) is 3.82 nM. Further, the CC50 at 5 days in series [1] is 29800 nM.

For the compound `CC1=NO[C@@]2(CC[C@H](C)N3C[C@H]2n2cc(C(=O)NCc4ccc(F)cc4F)c(=O)c(OCOC(=O)OCCCCC(C)C)c2C3=O)C1` [Example 205, (((3′S,5S,7′R)-10′-((2,4-difluorobenzyl)carbamoyl)-3,3′-dimethyl-1′,11′-dioxo-1′,4′,5′,11′-tetrahydro-3′H,4H,7′H-spiro[isoxazole-5,6′-[2,7]methanopyrido[1,2-a][1,4]diazonin]-12′-yl)oxy)methyl (5-methylhexyl) carbonate], the EC50 with HIV-1 (IIIB) (setting [2]) is 2.47 nM. The CC50 at 5 days in series [1] was 23100 nM.

As to `COC1=NO[C@@]2(CC[C@H](C)N3C[C@H]2n2cc(C(=O)NCc4ccc(F)cc4F)c(=O)c(OCOC(=O)OCCCCC(C)C)c2C3=O)C1` [Example 206, (((3′S,5S,7′R)-10′-((2,4-difluorobenzyl)carbamoyl)-3-methoxy-3′-methyl-1′,11′-dioxo-1′,4′,5′,11′-tetrahydro-3′H,4H,7′H-spiro[isoxazole-5,6′-[2,7]methanopyrido[1,2-a][1,4]diazonin]-12′-yl)oxy)methyl (5-methylhexyl) carbonate], the EC50 with HIV-1 (IIIB) (setting [2]) was 2.44 nM. Besides, the CC50 at 5 days in series [1] is 37200 nM.

Turning to `CC1=NO[C@@]2(CC[C@H](C)N3C[C@H]2n2cc(C(=O)NCc4ccc(F)cc4F)c(=O)c(OCOC(=O)OCCCCCC(C)C)c2C3=O)C1` [Example 207, (((3′S,5S,7′R)-10′-((2,4-difluorobenzyl)carbamoyl)-3,3′-dimethyl-1′,11′-dioxo-1′,4′,5′,11′-tetrahydro-3′H,4H,7′H-spiro[isoxazole-5,6′-[2,7]methanopyrido[1,2-a][1,4]diazonin]-12′-yl)oxy)methyl (6-methylheptyl) carbonate], in the series with HIV-1 (IIIB) (setting [2]), the EC50 turned out to be 0.564 nM. The CC50 at 5 days in series [1] is 11300 nM.

On to `COC1=NO[C@@]2(CC[C@H](C)N3C[C@H]2n2cc(C(=O)NCc4ccc(F)cc4F)c(=O)c(OCOC(=O)OCCCCCC(C)C)c2C3=O)C1` [Example 208, (((3′S,5S,7′R)-10′-((2,4-difluorobenzyl)carbamoyl)-3-methoxy-3′-methyl-1′,11′-dioxo-1′,4′,5′,11′-tetrahydro-3′H,4H,7′H-spiro[isoxazole-5,6′-[2,7]methanopyrido[1,2-a][1,4]diazonin]-12′-yl)oxy)methyl (6-methylheptyl) carbonate], for which the EC50 with HIV-1 (IIIB) (setting [2]) was determined as 0.594 nM. For the same compound, in series [1], the CC50 at 5 days was 21300 nM.

Consider `CC1=NO[C@@]2(CC[C@H](C)N3C[C@H]2n2cc(C(=O)NCc4ccc(F)cc4F)c(=O)c(OCOC(=O)OCCCCCCCC(C)C)c2C3=O)C1` [Example 211, (((3′S,5S,7′R)-10′-((2,4-difluorobenzyl)carbamoyl)-3,3′-dimethyl-1′,11′-dioxo-1′,4′,5′,11′-tetrahydro-3′H,4H,7′H-spiro[isoxazole-5,6′-[2,7]methanopyrido[1,2-a][1,4]diazonin]-12′-yl)oxy)methyl (8-methylnonyl) carbonate], for which the EC50 with HIV-1 (IIIB) (setting [2]) came to 3.73 nM. For the same compound, in series [1], the CC50 at 5 days came to 36700 nM.

With `COC1=NO[C@@]2(CC[C@H](C)N3C[C@H]2n2cc(C(=O)NCc4ccc(F)cc4F)c(=O)c(OCOC(=O)OCCCCCCCC(C)C)c2C3=O)C1` [Example 212, (((3′S,5S,7′R)-10′-((2,4-difluorobenzyl)carbamoyl)-3-methoxy-3′-methyl-1′,11′-dioxo-1′,4′,5′,11′-tetrahydro-3′H,4H,7′H-spiro[isoxazole-5,6′-[2,7]methanopyrido[1,2-a][1,4]diazonin]-12′-yl)oxy)methyl (8-methylnonyl) carbonate], the EC50 with HIV-1 (IIIB) (setting [2]) was found to be 8.6 nM. In addition, the CC50 at 5 days in series [1] was at least 50000 nM.

With `COC[C@@H](C)OC(=O)OCOc1c2n(cc(C(=O)NCc3ccc(F)cc3F)c1=O)[C@@H]1CN(C2=O)[C@@H](C)CC[C@]12CC(C)=NO2` [Example 213, (((3′S,5S,7′R)-10′-((2,4-difluorobenzyl)carbamoyl)-3,3′-dimethyl-1′,11′-dioxo-1′,4′,5′,11′-tetrahydro-3′H,4H,7′H-spiro[isoxazole-5,6′-[2,7]methanopyrido[1,2-a][1,4]diazonin]-12′-yl)oxy)methyl ((R)-1-methoxypropan-2-yl) carbonate], the EC50 with HIV-1 (IIIB) (setting [2]) worked out at 8.29 nM. Moreover, the CC50 at 5 days in series [1] is at least 50000 nM.

For the compound `COC[C@@H](C)OC(=O)OCOc1c2n(cc(C(=O)NCc3ccc(F)cc3F)c1=O)[C@@H]1CN(C2=O)[C@@H](C)CC[C@]12CC(OC)=NO2` [Example 214, (((3′S,5S,7′R)-10′-((2,4-difluorobenzyl)carbamoyl)-3-methoxy-3′-methyl-1′,11′-dioxo-1′,4′,5′,11′-tetrahydro-3′H,4H,7′H-spiro[isoxazole-5,6′-[2,7]methanopyrido[1,2-a][1,4]diazonin]-12′-yl)oxy)methyl ((R)-1-methoxypropan-2-yl) carbonate], the EC50 in the series on HIV-1 (IIIB) (setting [2]) came out at 6.25 nM. Moreover, the CC50 at 5 days in series [1] is at least 50000 nM.

Turning to `COC1=NO[C@@]2(CC[C@H](C)N3C[C@H]2n2cc(C(=O)NCc4ccc(F)cc4F)c(=O)c(OCOC(=O)OC[C@@H](C)OC)c2C3=O)C1` [Example 218, (((3′S,5S,7′R)-10′-((2,4-difluorobenzyl)carbamoyl)-3-methoxy-3′-methyl-1′,11′-dioxo-1′,4′,5′,11′-tetrahydro-3′H,4H,7′H-spiro[isoxazole-5,6′-[2,7]methanopyrido[1,2-a][1,4]diazonin]-12′-yl)oxy)methyl ((R)-2-methoxypropyl) carbonate], the EC50 in the series with HIV-1 (IIIB) (setting [2]) turned out to be 3.09 nM. Moreover, in series [1], the CC50 at 5 days was determined as 32500 nM.
